Cc1cc([N+](=O)[O-])ccc1N
Details	solubility (mole fraction)
in 2-butanone, 278.15 K	0.0846
in 2-butanone, 280.65 K	0.0899
in 2-butanone, 283.15 K	0.0955
in 2-butanone, 285.65 K	0.101
in 2-butanone, 288.15 K	0.107
in 2-butanone, 290.65 K	0.114
in 2-butanone, 293.15 K	0.12
in 2-butanone, 295.65 K	0.127
in 2-butanone, 298.15 K	0.134
in 2-butanone, 300.65 K	0.141
in 2-butanone, 303.15 K	0.149
in 2-butanone, 305.65 K	0.157
in 2-butanone, 308.15 K	0.165
in 2-butanone, 310.65 K	0.174
in 2-butanone, 313.15 K	0.183
in acetone, 278.15 K	0.0764
in acetone, 280.65 K	0.0815
in acetone, 283.15 K	0.0875
in acetone, 285.65 K	0.0933
in acetone, 288.15 K	0.0996
in acetone, 290.65 K	0.106
in acetone, 293.15 K	0.113
in acetone, 295.65 K	0.12
in acetone, 298.15 K	0.127
in acetone, 300.65 K	0.135
in acetone, 303.15 K	0.142
in acetone, 305.65 K	0.151
in acetonitrile, 278.15 K	0.0308
in acetonitrile, 280.65 K	0.0335
in acetonitrile, 283.15 K	0.0362
in acetonitrile, 285.65 K	0.039
in acetonitrile, 288.15 K	0.0423
in acetonitrile, 290.65 K	0.0456
in acetonitrile, 293.15 K	0.0491
in acetonitrile, 295.65 K	0.0528
in acetonitrile, 298.15 K	0.0566
in acetonitrile, 300.65 K	0.0607
in acetonitrile, 303.15 K	0.0651
in acetonitrile, 305.65 K	0.0699
in acetonitrile, 308.15 K	0.0747
in acetonitrile, 310.65 K	0.0797
in acetonitrile, 313.15 K	0.0852
in cyclohexane, 283.15 K	2.5e-05
in cyclohexane, 285.65 K	2.87e-05
in cyclohexane, 288.15 K	3.37e-05
in cyclohexane, 290.65 K	3.87e-05
in cyclohexane, 293.15 K	4.47e-05
in cyclohexane, 295.65 K	5.27e-05
in cyclohexane, 298.15 K	6.13e-05
in cyclohexane, 300.65 K	6.99e-05
in cyclohexane, 303.15 K	8.08e-05
in cyclohexane, 305.65 K	9.26e-05
in cyclohexane, 308.15 K	0.000108
in cyclohexane, 310.65 K	0.000122
in cyclohexane, 313.15 K	0.000139
in ethanol, 278.15 K	0.00732
in ethanol, 280.65 K	0.00807
in ethanol, 283.15 K	0.00887
in ethanol, 285.65 K	0.00974
in ethanol, 288.15 K	0.0107
in ethanol, 290.65 K	0.0117
in ethanol, 293.15 K	0.0127
in ethanol, 295.65 K	0.0139
in ethanol, 298.15 K	0.0152
in ethanol, 300.65 K	0.0165
in ethanol, 303.15 K	0.018
in ethanol, 305.65 K	0.0197
in ethanol, 308.15 K	0.0213
in ethanol, 310.65 K	0.0231
in ethanol, 313.15 K	0.025
in ethyl acetate, 278.15 K	0.062
in ethyl acetate, 280.65 K	0.0669
in ethyl acetate, 283.15 K	0.0722
in ethyl acetate, 285.65 K	0.0776
in ethyl acetate, 288.15 K	0.0837
in ethyl acetate, 290.65 K	0.0897
in ethyl acetate, 293.15 K	0.096
in ethyl acetate, 295.65 K	0.103
in ethyl acetate, 298.15 K	0.11
in ethyl acetate, 300.65 K	0.117
in ethyl acetate, 303.15 K	0.125
in ethyl acetate, 305.65 K	0.133
in ethyl acetate, 308.15 K	0.142
in ethyl acetate, 310.65 K	0.151
in ethyl acetate, 313.15 K	0.16
in isopropanol, 278.15 K	0.00459
in isopropanol, 280.65 K	0.00511
in isopropanol, 283.15 K	0.00572
in isopropanol, 285.65 K	0.00635
in isopropanol, 288.15 K	0.00707
in isopropanol, 290.65 K	0.00781
in isopropanol, 293.15 K	0.00865
in isopropanol, 295.65 K	0.00961
in isopropanol, 298.15 K	0.0106
in isopropanol, 300.65 K	0.0118
in isopropanol, 303.15 K	0.0129
in isopropanol, 305.65 K	0.0142
in isopropanol, 308.15 K	0.0157
in isopropanol, 310.65 K	0.0172
in isopropanol, 313.15 K	0.0189
in methanol, 278.15 K	0.00834
in methanol, 280.65 K	0.00913
in methanol, 283.15 K	0.0101
in methanol, 285.65 K	0.0109
in methanol, 288.15 K	0.0119
in methanol, 290.65 K	0.0131
in methanol, 293.15 K	0.0142
in methanol, 295.65 K	0.0155
in methanol, 298.15 K	0.0168
in methanol, 300.65 K	0.018
in methanol, 303.15 K	0.0198
in methanol, 305.65 K	0.0213
in methanol, 308.15 K	0.0231
in methanol, 310.65 K	0.0249
in methanol, 313.15 K	0.027
in n-butanol, 278.15 K	0.00492
in n-butanol, 280.65 K	0.00552
in n-butanol, 283.15 K	0.00618
in n-butanol, 285.65 K	0.00691
in n-butanol, 288.15 K	0.00778
in n-butanol, 290.65 K	0.00858
in n-butanol, 293.15 K	0.00951
in n-butanol, 295.65 K	0.0106
in n-butanol, 298.15 K	0.0118
in n-butanol, 300.65 K	0.0131
in n-butanol, 303.15 K	0.0145
in n-butanol, 305.65 K	0.016
in n-butanol, 308.15 K	0.0177
in n-butanol, 310.65 K	0.0196
in n-butanol, 313.15 K	0.0216
in n-propanol, 278.15 K	0.00631
in n-propanol, 280.65 K	0.00701
in n-propanol, 283.15 K	0.00776
in n-propanol, 285.65 K	0.00853
in n-propanol, 288.15 K	0.00939
in n-propanol, 290.65 K	0.0103
in n-propanol, 293.15 K	0.0113
in n-propanol, 295.65 K	0.0124
in n-propanol, 298.15 K	0.0136
in n-propanol, 300.65 K	0.0148
in n-propanol, 303.15 K	0.0162
in n-propanol, 305.65 K	0.0176
in n-propanol, 308.15 K	0.0192
in n-propanol, 310.65 K	0.0209
in n-propanol, 313.15 K	0.0227
in toluene, 278.15 K	0.00159
in toluene, 280.65 K	0.00178
in toluene, 283.15 K	0.00204
in toluene, 285.65 K	0.0023
in toluene, 288.15 K	0.00258
in toluene, 290.65 K	0.00285
in toluene, 293.15 K	0.00317
in toluene, 295.65 K	0.00353
in toluene, 298.15 K	0.00391
in toluene, 300.65 K	0.00439
in toluene, 303.15 K	0.0048
in toluene, 305.65 K	0.00527
in toluene, 308.15 K	0.00584
in toluene, 310.65 K	0.00645
in toluene, 313.15 K	0.00714
